# From US9695119B2, “Methionine analogs and methods of using same” (Bioxiness Pharmaceuticals, Inc., priority 2008, dated 2017)
# Read-outs that look alike come from different tables or passages of the source.
# How the values were obtained:
# B. subtillus = assay: Broad spectrum bacterial growth inhibition, 96-well plate, M9 media; type: cell-based; parameters: unit not given here
# Method: (§1) Table 2 and FIG. 2 summarizes a series of studies, which were performed to test eradication of bacterial growth using various species (representative strains of gram positive and gram negative microorganisms commonly associated with wound infection). A 96-well plate format was used to culture different bacteria in M9 minimal media supplemented with glucose (M9) or same media supplemented with a range of concentrations of various analogues (Methionine, I-AA and I-AB). Experiments were carried out in duplicate.
# E. coli = assay: as above; type: cell-based; parameters: unit not given here
# Method: as §1
# P. aeruginosa = assay: as above; type: cell-based; parameters: unit not given here
# Method: as §1
# [1] = tested on: CV-1 (African Green Monkey Kidney Cells) cells; conditions: 60 min, pH 7
# Method: Preliminary studies of cytotoxicity were performed in a mammalian cell viability assay.
# CV-1 cells were propagated in DMEM plus 8% FBS according to supplier's recommendations. CV-1 cells were seeded at 1.5×10^4 cells per well in 96-well plates and incubated overnight at 37° C. On the day of testing, growth medium was aspirated from each well, and 20 μl fresh medium was added per well. Test articles were diluted from 50 mM to 0.05 mM by 2-fold serial dilution using PBS at pH 7.0 for each test article. After which 80 μl of each dilution was added to each well for a total volume of 100 μl per well. Following 60 minutes exposure at 37° C., test articles were aspirated and replaced with fresh 100 μl tissue culture media and incubated for 24 hours at 37° C. Next day cell culture media was removed and cell viability was determined by addition of WST-8 (Dojindo, Japan) reagent and the absorption at 450 nm read spectrophotometrically. Orange-red formazan, which is produced by live cells, is a direct measure of cell viability in this assay.
# Results are expressed as percentage of cells surviving the treatment as compared to PBS.
structure (smiles),measurement,setting,value
"CSCC[C@H](NC(=O)CN)C(=O)NO.Cl [I-AB, (S)-2-(2-aminoacetamido)-N-hydroxy-4-(methylthio)butanamide hydrochloride]","Broad Spectrum Bacterial Growth Inhibition Data, B. subtillus","B. subtillus; Conc. 0.0, well 4, M9 media",0.5
same,"Broad Spectrum Bacterial Growth Inhibition Data, B. subtillus","B. subtillus; Conc. 0.1, well 5, M9 media",0.5
same,"Broad Spectrum Bacterial Growth Inhibition Data, B. subtillus","B. subtillus; Conc. 0.2, well 6, M9 media",0.4
same,"Broad Spectrum Bacterial Growth Inhibition Data, B. subtillus","B. subtillus; Conc. 0.4, well 7, M9 media",0.4
same,"Broad Spectrum Bacterial Growth Inhibition Data, B. subtillus","B. subtillus; Conc. 0.8, well 8, M9 media",0.2
same,"Broad Spectrum Bacterial Growth Inhibition Data, B. subtillus","B. subtillus; Conc. 1.6, well 9, M9 media",0.2
same,"Broad Spectrum Bacterial Growth Inhibition Data, B. subtillus","B. subtillus; Conc. 3.1, well 10, M9 media",0.2
same,"Broad Spectrum Bacterial Growth Inhibition Data, B. subtillus","B. subtillus; Conc. 6.3, well 11, M9 media",0.2
same,"Broad Spectrum Bacterial Growth Inhibition Data, B. subtillus","B. subtillus; Conc. 12.5, well 12, M9 media",0.2
same,"Broad Spectrum Bacterial Growth Inhibition Data, E. coli","E. coli; Conc. 0.0, well 4, M9 media",0.4
same,"Broad Spectrum Bacterial Growth Inhibition Data, E. coli","E. coli; Conc. 0.1, well 5, M9 media",0.4
same,"Broad Spectrum Bacterial Growth Inhibition Data, E. coli","E. coli; Conc. 0.2, well 6, M9 media",0.4
same,"Broad Spectrum Bacterial Growth Inhibition Data, E. coli","E. coli; Conc. 0.4, well 7, M9 media",0.4
same,"Broad Spectrum Bacterial Growth Inhibition Data, E. coli","E. coli; Conc. 0.8, well 8, M9 media",0.5
same,"Broad Spectrum Bacterial Growth Inhibition Data, E. coli","E. coli; Conc. 1.6, well 9, M9 media",0.4
same,"Broad Spectrum Bacterial Growth Inhibition Data, E. coli","E. coli; Conc. 3.1, well 10, M9 media",0.2
same,"Broad Spectrum Bacterial Growth Inhibition Data, E. coli","E. coli; Conc. 6.3, well 11, M9 media",0.2
same,"Broad Spectrum Bacterial Growth Inhibition Data, E. coli","E. coli; Conc. 12.5, well 12, M9 media",0.2
same,"Broad Spectrum Bacterial Growth Inhibition Data, P. aeruginosa","P. aeruginosa; Conc. 0.0, well 4, M9 media",1.1
same,"Broad Spectrum Bacterial Growth Inhibition Data, P. aeruginosa","P. aeruginosa; Conc. 0.1, well 5, M9 media",1.0
same,"Broad Spectrum Bacterial Growth Inhibition Data, P. aeruginosa","P. aeruginosa; Conc. 0.2, well 6, M9 media",1.0
same,"Broad Spectrum Bacterial Growth Inhibition Data, P. aeruginosa","P. aeruginosa; Conc. 0.4, well 7, M9 media",1.0
same,"Broad Spectrum Bacterial Growth Inhibition Data, P. aeruginosa","P. aeruginosa; Conc. 0.8, well 8, M9 media",1.0
same,"Broad Spectrum Bacterial Growth Inhibition Data, P. aeruginosa","P. aeruginosa; Conc. 1.6, well 9, M9 media",1.0
same,"Broad Spectrum Bacterial Growth Inhibition Data, P. aeruginosa","P. aeruginosa; Conc. 3.1, well 10, M9 media",1.0
same,"Broad Spectrum Bacterial Growth Inhibition Data, P. aeruginosa","P. aeruginosa; Conc. 6.3, well 11, M9 media",0.1
same,"Broad Spectrum Bacterial Growth Inhibition Data, P. aeruginosa","P. aeruginosa; Conc. 12.5, well 12, M9 media",0.1
same,Percentage of Surviving CV-1 cells relative to PBS,[1]; 0.1 mM,97%
same,Percentage of Surviving CV-1 cells relative to PBS,[1]; 0.2 mM,94%
same,Percentage of Surviving CV-1 cells relative to PBS,[1]; 0.39 mM,97%
same,Percentage of Surviving CV-1 cells relative to PBS,[1]; 0.78 mM,97%
same,Percentage of Surviving CV-1 cells relative to PBS,[1]; 1.56 mM,98%
same,Percentage of Surviving CV-1 cells relative to PBS,[1]; 3.13 mM,100%
same,Percentage of Surviving CV-1 cells relative to PBS,[1]; 6.25 mM,100%
same,Percentage of Surviving CV-1 cells relative to PBS,[1]; 12.5 mM,101%
same,Percentage of Surviving CV-1 cells relative to PBS,[1]; 25 mM,100%
same,Percentage of Surviving CV-1 cells relative to PBS,[1]; 50 mM,60%
